Here are results for 1 compound from US20260076988A1 (The Cleveland Clinic Foundation, priority 2019, published 2026).

Each structure is given as a SMILES string. “Also recorded” adds a separate entry of the source.

In assay [1] the test system is Dck, Uck2, Cda and Cad. As to the kind of experiment: F1339 cells: pyrimidine metabolism enzyme expression by QRT-PCR and Western blot. The class given is cell-based, murine. The procedure:
(§1) FIG. 2. […] F1339 p53-null cancer cells were seeded at D0 and treated with DMSO, deoxycytidine (DC, 0.5 μM), cytidine (CY, 5 μM), Dec (0.5 μM) and 5Aza (5 μM). […] Cell counts by automated counter, mean±SD. […] Gene expression by Q-PCR, median±interquartile range (IQR) (3 biological replicates), *p<0.05, **p<0.01. 2-sided Mann-Whitney test. […] Western blot.
RNA was extracted using Trizol reagent (Invitrogen) before the generation of complementary DNA using the iScript™ cDNA Synthesis Kit (Bio-rad). Quantitative PCR was run on StepOnePlus Real-Time PCR System (Applied Biosystems), using comparative Ct value method to quantify the expression of target genes in different samples. Gene expression was normalized to the housekeeping gene β-actin.
Tumor cells were lysed with RIPA lysis buffer and protein concentrations determined by BCA protein assay kit (Thermo Fisher Scientific). Samples with equal quantity (40 μg) of total protein were mixed with 4× loading buffer and 10× sample reducing reagent (Thermo Fisher Scientific), subjected to electrophoresis on a 12% (v/v) SDS-polyacrylamide gel, then transferred onto polyvinylidene fluoride membranes. After blocking with 5% dried skimmed milk, the membranes were washed three times and incubated with primary antibodies at 4° C. overnight. After washing, the membranes were further incubated with corresponding horseradish peroxidase-conjugated secondary antibodies. The membranes were then treated with Pierce™ ECL substrates (Thermo Scientific) then visualized using X-ray film.

Assay [2] relates to F1339 p53-null SCLC cells. Description: F1339 SCLC cells in vitro: proliferation, apoptosis, differentiation. It counts as cell-based, murine. The procedure:
as §1

The test system of assay [3] is UCK2-knockout HAP1 leukemia cells. As to the kind of experiment: Growth inhibition of UCK2-knockout HAP1 leukemia cells. The class given is cell-based. Conditions: Homo sapiens, HAP1; UCK2-knockout cells; read-out: GI50 (concentration for 50% growth inhibition). The text has this:
(§2) A) DCK and UCK2 knockout (KO) were confirmed by Western blot. HAP1 leukemia cells, KO by CRISPR-Cas9. B) DCK-KO lowers dCTP and UCK2-KO lowers dTTP. Analysis of independent nucleotide extractions. Means±SD; p-values unpaired t-test, 2-sided. C) Sensitivity of Wildtype, DCK-KO and UCK2-KO HAP1 leukemia cells to Dec vs 5Aza. Means±SD of 3 independent biological replicates.
(§3) Study approvals. Bone marrow samples for research were obtained from patients with AML (Acute myeloid leukemia) with written informed consent on a study protocol approved by the Cleveland Clinic Institutional Review Board (Cleveland, Ohio). Murine experiments were approved by the Cleveland Clinic Institutional Animal Care and Use Committee (Cleveland, Ohio). Sources of cell lines and animals. […] DNMT1 Immuno-detection and quantitation: Immunohistochemistry (IHC) was performed on decalcified and formalin-fixed paraffin embedded bone marrow biopsy sections (4 μm) and on positive and negative controls (parental and DNMT1-KO HCT116 cells). […] Nuclei positive for DNMT1 were identified and quantified in high resolution, large field-of-view images per ImageIQ algorithms (Image IQ Inc., Cleveland, OH) after segmentation of images and subtraction of bone as has been previously described^4.

For another assay, the system named is LL3 lung cancer cells. As to the kind of experiment: Syngeneic disseminated lung cancer model (LL3, tail vein). The class given is in vivo, C57BL/6 mice. As to conditions: treatment from day 21; Dec 0.2, THU-Dec 10/0.1, 5Aza 2, THU-5Aza 10/1 mg/kg sc 3×/wk.
Description: (§4) 2-sided Mann-Whitney test.
as §4, §4

Assay [4] concerns DCK, UCK2, CDA and CAD. Description: Patients' bone marrow enzyme expression pre-treatment vs relapse, QRT-PCR. It counts as in vivo, human. As to conditions: MDS patients' bone marrow. The text has this: Serial bone marrow biopsies from the same patient were cut onto the same slide, stained for DNMT1, and the number of DNMT1-positive nuclei was quantified objectively using ImageIQ software in 13 patients and positive/negative controls (tissue blocks of HCT116 wild-type and DNMT1-knockout cells respectively). D=days of therapy. Pre-Rx=pre-treatment; HI=hematologic improvement; CR=complete remission; SD=stable disease; Rel.=relapse. Mean±SD of ×3 image segments (cellular regions) per sample; p-value paired t-test, 2-sided. C) Expression of key pyrimidine metabolism enzymes at relapse/progression on Dec. […] Bone marrow cells aspirated pre-treatment and at relapse/progression on Dec (13 patients, median duration of therapy 175 days, range 97-922) or 5Aza (14 patients, median duration of therapy 433 days, range 61-1155) were analyzed by QRT-PCR. Mean±SD technical replicates×3. Paired t-test, 2-sided. D) Expression by Western blot of DNMT1 and key pyrimidine metabolism enzymes in Dec-resistant AML cells (THP1, K562, OCI-AML3 and MOLM13), and in parental THP1 AML cells treated with vehicle, Dec or 5-azacytidine (5Aza). Western blots.
DNA isolation, reverse transcription (RT) and real-time PCR. As previously described^59. Primer sequences were:
CAD increased an average of ˜8-fold at relapse on either pro-drug, but not in all patients (FIG. 23C). The proliferation marker MKI67 increased at relapse in almost all the patients, consistent with active progression of disease (FIG. 23C).

Assay [5] concerns DCK-knockout HAP1 leukemia cells. Description: Growth inhibition of DCK-knockout HAP1 leukemia cells. The class given is cell-based. As to conditions: Homo sapiens, HAP1; DCK-knockout cells; read-out: GI50 (concentration for 50% growth inhibition).
Description: as §2, §3

`Nc1ncn([C@@H]2O[C@H](CO)[C@@H](O)[C@H]2O)c(=O)n1` [5-azacytidine]: in the assay on Dck, Uck2, Cda and Cad [1] (decitabine 0.5 μM, 5-azacytidine 5 μM), the “expression of Dck, Uck2, Cda and Cad” value was “increased Dck, Cda and Cad expression several-fold”. In the assay with Dck, Uck2, Cda and Cad [1] (lung cancer cells), this compound yielded a CAD upregulation of about 2 fold and a DCK upregulation of about 3 fold. Further, the “cell membrane Annexin-V staining (apoptosis-induction)” value in assay [2] (24 hours after initiation of drug exposure) is “unaltered cell membrane Annexin-V staining”. Besides, the “morphologic changes of differentiation” value in assay [2] (Giemsa-stained cytospins Day 5) is given as “induced morphologic changes in the cells consistent with differentiation induction”. In assay [2] (Western blot Day 5), the Myc protein entry is on record as “decreased Myc protein” and the p27/CDKN1B protein entry is reported as “increased p27/CDKN1B protein”. Moreover, the F1339 proliferation result in assay [2] (decitabine 0.5 μM, 5-azacytidine 5 μM, cytarabine 0.5 μM) was “significantly decreased F1339 proliferation; also recorded: did significantly impede the SCLC cell proliferation”. Moreover, in assay [3], the GI50 was 15 µM. The “increase of time-to-distress over vehicle” value with LL3 lung cancer cells is listed as “about 20 days”. Also, in the assay with DCK, UCK2, CDA and CAD [4], the “decrease of CDA expression at relapse” value is given as about 50%, the “decrease of UCK2 expression at relapse” value is about 50% and the “increase of DCK expression at relapse” value was about 8 fold. In addition, the “average increase of CAD expression at relapse” value in the assay with DCK, UCK2, CDA and CAD [4] (not in all patients) is listed as about 8 fold. Moreover, the GI50 in assay [5] was determined as 2 µM.
